# From PubChem BioAssay (NCI)
#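 Test compounds were applied to cells in 96-well plates for 48 hours at 5 doses. GI50: concentration for 50% inhibition of growth. TGI: concentration producing complete growth inhibition.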 *1 amine or outer side, *2 acyl side, *3 side chain or, on linkers, in order; H or OH if unused. Where a SMILES comes first, the peptide text is derived from it. [ ]: non-standard residue; d: D form. The star is where a group is joined. X11 = C/C=C/CC(C)C(O)[C@H](N[*:1])C(=O)[*:2]; Decanoyl = CCCCCCCCCC(=O)*; Leu(ol) = CC(C)C[C@H](N)CO; Iva = CC[C@](C)(N)C(=O)O; Aib = CC(C)(N)C(=O)O
# Legend:
# Test in all cases: DTP human tumour cell line panel, 48 h
# RPMI-8226 leukemia = test system: RPMI-8226 leukemia
# NCI-H522 lung = test system: NCI-H522 lung
# OVCAR-5 ovarian = test system: OVCAR-5 ovarian
# MDA-MB-231 breast = test system: MDA-MB-231 breast
# SK-MEL-5 melanoma = test system: SK-MEL-5 melanoma
# HS 578T breast = test system: HS 578T breast
# OVCAR-3 ovarian = test system: OVCAR-3 ovarian
# CCRF-CEM leukemia = test system: CCRF-CEM leukemia
# HCC-2998 colon = test system: HCC-2998 colon
# A549 NSCLC = test system: A549 NSCLC
# OVCAR-4 ovarian = test system: OVCAR-4 ovarian
# HT29 colon = test system: HT29 colon
# UACC-257 melanoma = test system: UACC-257 melanoma
# K-562 leukemia = test system: K-562 leukemia
# SR leukemia = test system: SR leukemia
# TK-10 renal = test system: TK-10 renal
# RXF 393 renal = test system: RXF 393 renal
# HOP-92 NSCLC = test system: HOP-92 NSCLC
# NCI-H23 lung = test system: NCI-H23 lung
# SK-OV-3 ovarian = test system: SK-OV-3 ovarian
# UACC-62 melanoma = test system: UACC-62 melanoma
# MOLT-4 leukemia = test system: MOLT-4 leukemia
# PC-3 prostate = test system: PC-3 prostate
# 786-0 renal = test system: 786-0 renal
# SF-539 CNS = test system: SF-539 CNS
# HCT-116 colon = test system: HCT-116 colon
# SF-295 CNS = test system: SF-295 CNS
# MALME-3M melanoma = test system: MALME-3M melanoma
# T-47D breast = test system: T-47D breast
# A498 renal = test system: A498 renal
# MCF7 breast = test system: MCF7 breast
# U251 CNS = test system: U251 CNS
# M14 melanoma = test system: M14 melanoma
# MDA-MB-435 = test system: MDA-MB-435
# UO-31 renal = test system: UO-31 renal
# HCT-15 colon = test system: HCT-15 colon
# EKVX NSCLC = test system: EKVX NSCLC
# SN12C renal = test system: SN12C renal
# SNB-75 CNS = test system: SNB-75 CNS
# SF-268 CNS = test system: SF-268 CNS
# HL-60(TB) leukemia = test system: HL-60(TB) leukemia
# LOX IMVI melanoma = test system: LOX IMVI melanoma
# NCI/ADR-RES ovarian = test system: NCI/ADR-RES ovarian
# SK-MEL-28 melanoma = test system: SK-MEL-28 melanoma
# SNB-19 CNS = test system: SNB-19 CNS
# KM12 colon = test system: KM12 colon
# OVCAR-8 ovarian = test system: OVCAR-8 ovarian
# ACHN renal = test system: ACHN renal
# COLO 205 colon = test system: COLO 205 colon
# CAKI-1 renal = test system: CAKI-1 renal
# BT-549 breast = test system: BT-549 breast
# HOP-62 NSCLC = test system: HOP-62 NSCLC
# SW-620 colon = test system: SW-620 colon
# DU-145 prostate = test system: DU-145 prostate
# NCI-H226 lung = test system: NCI-H226 lung
# IGROV1 ovarian = test system: IGROV1 ovarian
# SK-MEL-2 melanoma = test system: SK-MEL-2 melanoma
# NCI-H460 lung = test system: NCI-H460 lung
compound,measurement,setting,value
C/C=C/CC(C)C(O)[C@H](NC(=O)[C@@H]1CCCN1C(=O)C(C)(C)NC(=O)CCCCCCCCC)C(=O)N[C@@](C)(CC)C(=O)N[C@@H](CCC(N)=O)C(=O)N[C@H](CCC(N)=O)C(=O)NC(C)(C)C(=O)NC(C)(C)C(=O)N[C@@H](CCC(N)=O)C(=O)N[C@H](CC(C)C)C(=O)N[C@H](CO)CC(C)C (stereo partly drawn) (Decanoyl-[Aib]P[X11][Iva]Q[dQ][Aib][Aib]Q[dL][Leu(ol)]),GI50,RPMI-8226 leukemia,2.05 µM
same,TGI,RPMI-8226 leukemia,4.51 µM
same,GI50,NCI-H522 lung,1.7 µM
same,TGI,NCI-H522 lung,3.36 µM
same,GI50,OVCAR-5 ovarian,1.73 µM
same,TGI,OVCAR-5 ovarian,3.29 µM
same,GI50,MDA-MB-231 breast,1.71 µM
same,TGI,MDA-MB-231 breast,3.16 µM
same,GI50,SK-MEL-5 melanoma,1.79 µM
same,TGI,SK-MEL-5 melanoma,3.3 µM
same,GI50,HS 578T breast,1.78 µM
same,TGI,HS 578T breast,3.49 µM
same,GI50,OVCAR-3 ovarian,2.02 µM
same,TGI,OVCAR-3 ovarian,4.35 µM
same,GI50,CCRF-CEM leukemia,2.04 µM
same,TGI,CCRF-CEM leukemia,4.4 µM
same,GI50,HCC-2998 colon,2.16 µM
same,TGI,HCC-2998 colon,4.63 µM
same,GI50,A549 NSCLC,3.02 µM
same,TGI,A549 NSCLC,9.38 µM
same,GI50,OVCAR-4 ovarian,3.91 µM
same,TGI,OVCAR-4 ovarian,9.05 µM
same,GI50,HT29 colon,2.41 µM
same,TGI,HT29 colon,5.68 µM
same,GI50,UACC-257 melanoma,1.77 µM
same,TGI,UACC-257 melanoma,3.37 µM
same,GI50,K-562 leukemia,1.95 µM
same,TGI,K-562 leukemia,4 µM
same,GI50,SR leukemia,1.37 µM
same,TGI,SR leukemia,3.07 µM
same,GI50,TK-10 renal,2.13 µM
same,TGI,TK-10 renal,4.93 µM
same,GI50,RXF 393 renal,2.15 µM
same,TGI,RXF 393 renal,4.01 µM
same,GI50,HOP-92 NSCLC,1.84 µM
same,TGI,HOP-92 NSCLC,4.08 µM
same,GI50,NCI-H23 lung,2.32 µM
same,TGI,NCI-H23 lung,5.42 µM
same,GI50,SK-OV-3 ovarian,3.85 µM
same,TGI,SK-OV-3 ovarian,8.71 µM
same,GI50,UACC-62 melanoma,1.75 µM
same,TGI,UACC-62 melanoma,3.38 µM
same,GI50,MOLT-4 leukemia,2.33 µM
same,TGI,MOLT-4 leukemia,4.93 µM
same,GI50,PC-3 prostate,1.84 µM
same,TGI,PC-3 prostate,3.65 µM
same,GI50,786-0 renal,1.81 µM
same,TGI,786-0 renal,3.35 µM
same,GI50,SF-539 CNS,1.76 µM
same,TGI,SF-539 CNS,3.17 µM
same,GI50,HCT-116 colon,2.41 µM
same,TGI,HCT-116 colon,6.09 µM
same,GI50,SF-295 CNS,1.76 µM
same,TGI,SF-295 CNS,3.32 µM
same,GI50,MALME-3M melanoma,1.56 µM
same,TGI,MALME-3M melanoma,2.96 µM
same,GI50,T-47D breast,2.31 µM
same,TGI,T-47D breast,5.95 µM
same,GI50,A498 renal,1.94 µM
same,TGI,A498 renal,3.68 µM
same,GI50,MCF7 breast,1.81 µM
same,TGI,MCF7 breast,3.51 µM
same,GI50,U251 CNS,1.75 µM
same,TGI,U251 CNS,3.36 µM
same,GI50,M14 melanoma,1.81 µM
same,TGI,M14 melanoma,3.44 µM
same,GI50,MDA-MB-435,1.68 µM
same,TGI,MDA-MB-435,3.05 µM
same,GI50,UO-31 renal,1.56 µM
same,TGI,UO-31 renal,3.12 µM
same,GI50,HCT-15 colon,2.54 µM
same,TGI,HCT-15 colon,6.93 µM
same,GI50,EKVX NSCLC,1.85 µM
same,TGI,EKVX NSCLC,3.77 µM
same,GI50,SN12C renal,2.17 µM
same,TGI,SN12C renal,4.92 µM
same,GI50,SNB-75 CNS,1.48 µM
same,TGI,SNB-75 CNS,2.98 µM
same,GI50,SF-268 CNS,1.83 µM
same,TGI,SF-268 CNS,3.56 µM
same,GI50,HL-60(TB) leukemia,1.93 µM
same,TGI,HL-60(TB) leukemia,4.12 µM
same,GI50,LOX IMVI melanoma,1.73 µM
same,TGI,LOX IMVI melanoma,3.3 µM
same,GI50,NCI/ADR-RES ovarian,2.04 µM
same,TGI,NCI/ADR-RES ovarian,4.45 µM
same,GI50,SK-MEL-28 melanoma,1.76 µM
same,TGI,SK-MEL-28 melanoma,3.16 µM
same,GI50,SNB-19 CNS,1.7 µM
same,TGI,SNB-19 CNS,3.15 µM
same,GI50,KM12 colon,1.95 µM
same,TGI,KM12 colon,3.94 µM
same,GI50,OVCAR-8 ovarian,1.84 µM
same,TGI,OVCAR-8 ovarian,3.99 µM
same,GI50,ACHN renal,2.45 µM
same,TGI,ACHN renal,6.09 µM
same,GI50,COLO 205 colon,2 µM
same,TGI,COLO 205 colon,4.44 µM
same,GI50,CAKI-1 renal,2.13 µM
same,TGI,CAKI-1 renal,5.02 µM
same,GI50,BT-549 breast,1.98 µM
same,TGI,BT-549 breast,3.67 µM
same,GI50,HOP-62 NSCLC,1.99 µM
same,TGI,HOP-62 NSCLC,4.06 µM
same,GI50,SW-620 colon,2.75 µM
same,TGI,SW-620 colon,7.17 µM
same,GI50,DU-145 prostate,1.73 µM
same,TGI,DU-145 prostate,3.13 µM
same,GI50,NCI-H226 lung,2.07 µM
same,TGI,NCI-H226 lung,4.56 µM
same,GI50,IGROV1 ovarian,2.34 µM
same,TGI,IGROV1 ovarian,6.31 µM
same,GI50,SK-MEL-2 melanoma,1.81 µM
same,TGI,SK-MEL-2 melanoma,3.49 µM
same,GI50,NCI-H460 lung,1.86 µM
same,TGI,NCI-H460 lung,3.45 µM
